In paper PMC3783656 (Bioorganic & medicinal chemistry letters, 2013):
Converted amounts (≈) assume the structure as drawn. Read-outs that look alike come from different tables or passages of the source. Blank lines part the entries; values can stand above or below the molecule they belong to.

Legend:
[1] = system: human melanoma A375 cell line; assay: MTT assay against A375 melanoma cells; format: cell-based
CK1 [2] = details: cited from earlier work
CK1 [3] = details: cited from earlier work; remark: listed apart in the source
CK1δ [4] = target: T1, CK1δ (Homo sapiens, UniProt P48730); assay: CK1δ inhibition, Reaction Biology Corp.; format: biochemical; details: for IC50: read-out: IC50 CK1δ
442 kinases = assay: DiscoverRX KINOMEscan analysis of 442 kinases; format: binding; details: 10 μM, KINOMEscan of 442 kinases
CK1δ [5] = target: T1, CK1δ; assay: CK1δ inhibition, in-house kinase inhibition assay; format: biochemical; details: read-out: IC50 CK1δ
Solubility in PBS buffer = format: physicochemical
[6] = Solubility in DMEM/10% FBS; format: physicochemical
[7] = Microsome stability, human liver microsomes
Mouse PK studies = format: in vivo; details: IV dosing, 1 mg/kg, 10/10/80 DMSO/Tween/water
cytochrome P450 1A2 = cytochrome P450 1A2 (Homo sapiens, UniProt P05177); assay: Cyp assay, 1A2; format: in vitro ADME; details: at 10 μM
[8] = Microsome stability, mouse liver microsomes
CK1ε = CK1ε (Homo sapiens, UniProt P49674); assay: CK1ε inhibition, Reaction Biology Corporation; format: biochemical
[9] = Microsome stability, rat liver microsomes
[10] = read-out: MTT assay A375 EC50, human A375 melanoma cell line
[11] = data obtained by Reaction Biology Corp.

T1 sequence (P48730 whole entry): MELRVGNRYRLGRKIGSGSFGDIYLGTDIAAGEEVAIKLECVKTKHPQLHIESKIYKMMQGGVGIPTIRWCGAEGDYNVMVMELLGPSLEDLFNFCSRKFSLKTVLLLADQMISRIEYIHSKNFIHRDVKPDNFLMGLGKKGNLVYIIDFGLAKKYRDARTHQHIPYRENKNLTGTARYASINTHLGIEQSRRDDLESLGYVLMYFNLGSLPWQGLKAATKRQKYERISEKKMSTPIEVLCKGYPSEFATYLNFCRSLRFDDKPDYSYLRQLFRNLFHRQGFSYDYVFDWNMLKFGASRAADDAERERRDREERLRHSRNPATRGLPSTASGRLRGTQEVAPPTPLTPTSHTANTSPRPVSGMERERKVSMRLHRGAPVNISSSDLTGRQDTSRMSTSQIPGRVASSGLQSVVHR
Sequence of CK1ε (P49674 whole entry): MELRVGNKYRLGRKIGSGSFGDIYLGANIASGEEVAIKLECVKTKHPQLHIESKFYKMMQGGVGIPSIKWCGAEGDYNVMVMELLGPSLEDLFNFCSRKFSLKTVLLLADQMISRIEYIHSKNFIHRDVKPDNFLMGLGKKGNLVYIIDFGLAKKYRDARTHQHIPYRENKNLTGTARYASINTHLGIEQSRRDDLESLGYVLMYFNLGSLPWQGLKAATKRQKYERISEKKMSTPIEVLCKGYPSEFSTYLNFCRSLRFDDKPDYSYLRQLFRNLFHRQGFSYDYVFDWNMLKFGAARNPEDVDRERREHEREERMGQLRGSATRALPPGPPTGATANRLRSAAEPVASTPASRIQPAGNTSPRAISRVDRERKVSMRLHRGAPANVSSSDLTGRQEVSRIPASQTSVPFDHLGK
Sequence of cytochrome P450 1A2 (P05177 whole entry, species assumed): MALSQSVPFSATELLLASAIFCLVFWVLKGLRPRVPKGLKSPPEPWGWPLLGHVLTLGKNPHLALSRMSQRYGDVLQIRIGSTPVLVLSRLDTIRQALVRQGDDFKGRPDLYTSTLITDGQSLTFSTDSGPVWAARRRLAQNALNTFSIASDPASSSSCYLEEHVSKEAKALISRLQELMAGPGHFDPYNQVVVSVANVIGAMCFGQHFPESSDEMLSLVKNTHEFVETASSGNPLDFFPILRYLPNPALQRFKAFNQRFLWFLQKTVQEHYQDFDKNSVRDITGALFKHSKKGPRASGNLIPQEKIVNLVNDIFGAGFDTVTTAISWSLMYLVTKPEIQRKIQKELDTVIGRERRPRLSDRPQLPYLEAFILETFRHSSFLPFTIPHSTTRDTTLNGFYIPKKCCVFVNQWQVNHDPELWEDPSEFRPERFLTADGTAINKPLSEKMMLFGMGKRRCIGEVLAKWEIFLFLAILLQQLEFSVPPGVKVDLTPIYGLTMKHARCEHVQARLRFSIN

EC50 [1, 10]: 2300 nM
Structure (SMILES): O=C(Nc1nc2ccc(C(F)(F)F)cc2[nH]1)c1csc(NC(=O)c2ccccc2OC(F)(F)F)n1 [Bischof-5, reference compound]

Structure (SMILES): COc1cc(OC)c(C=C2C(O)=Nc3ccccc32)c(OC)c1 [IC261]
IC50 (CK1 [2]; read-out: IC50 for CK1 inhibition in cells, in cells): 25000 nM
IC50 (CK1 [3]; read-out: IC50 for CK1 inhibition in vitro, in vitro): 1000 nM

IC50 (CK1δ [4]; [11]): 11 nM
Structure (SMILES): CN1CCN(c2nc(NCc3nc4ccccc4[nH]3)c3ncn(-c4ccsc4)c3n2)CC1 [SR-1294]

IC50 (CK1δ [4]; [11]): 11 nM
Structure (SMILES): N#Cc1ccc2[nH]c(CNc3nc(N4CCOCC4)nc4c3ncn4-c3ccsc3)nc2c1 [SR-1276]

EC50 [1, 10]: > 10000 nM
Structure (SMILES): Nc1nccc(-c2c(-c3ccc(F)cc3)ncn2C2CCCCC2)n1 [PF-670462, reference compound]
Number of kinases inhibited ≥90% (442 kinases): 44

IC50 (CK1δ [5]): 57 nM
Structure (SMILES): O=[N+]([O-])c1cccc2[nH]c(CNc3nc(N4CCOCC4)nc4c3ncn4-c3cccc(F)c3)nc12 [SR-2364]

IC50 (CK1δ [4]; [11]): 50 nM
Structure (SMILES): Fc1ccc2[nH]c(CNc3nc(N4CCOCC4)nc4c3ncn4-c3ccsc3)nc2c1 [SR-1275]

IC50 (CK1δ [4]; [11]): 13 nM
Structure (SMILES): FC(F)(F)c1ccc2[nH]c(CNc3nc(N4CCOCC4)nc4c3ncn4-c3ccsc3)nc2c1 [SR-1273]

IC50 CK1δ (CK1δ [4]; [11]): essentially inactive
IC50 (CK1δ [4]; [11]): > 1000 nM
Structure (SMILES): O=[N+]([O-])c1cccc2[nH]c(CNc3nc(N4CCOCC4)nc4c3ncn4-c3ccc(F)cc3)nc12 [SR-2362]

Structure (SMILES): NCCNS(=O)(=O)c1ccc(Cl)c2ccncc12 [CKI-7]
IC50 (CK1 [3]; read-out: CK1 inhibition): 6000 nM

Structure (SMILES): CC[C@H](CO)Nc1nc(Nc2cccc(-c3ccccn3)c2)c2ncn(C(C)C)c2n1 [(R)-DRF053]
IC50 (CK1 [3]; read-out: CK1 inhibition, dual CK1/CDK inhibitor): 14 nM

Structure (SMILES): NC(=O)c1ccc(-c2nc(-c3ccc4c(c3)OCCO4)c(-c3ccccn3)[nH]2)cc1 [Compound D4476]
EC50 [1, 10]: 10000 nM
Activity in cell-based assays (CK1 [2]; cell-based assays): 20 to 50 µM

IC50 (CK1δ [5]): 75 nM
Structure (SMILES): O=[N+]([O-])c1cccc2[nH]c(CNc3nc(N4CCOCC4)nc4c3ncn4-c3cc(F)cc(F)c3)nc12 [SR-2368]

IC50 (CK1δ [4]; [11]): 17 nM
Structure (SMILES): COc1ccc2[nH]c(CNc3nc(N4CCOCC4)nc4c3ncn4-c3ccsc3)nc2c1 [SR-1279]

IC50 (CK1δ [4]; [11]): 10 nM
Structure (SMILES): CS(=O)(=O)c1ccc2[nH]c(CNc3nc(N4CCOCC4)nc4c3ncn4-c3ccsc3)nc2c1 [SR-2797]

IC50 (CK1δ [5]): 51 nM
Solubility (Solubility in PBS buffer): 54 µM (≈ 25.2 µg/mL)
Structure (SMILES): Clc1ccc2[nH]c(CNc3nc(N4CCNCC4)nc4c3ncn4-c3ccsc3)nc2c1 [SR-2876]

IC50 (CK1δ [4]; [11]): 3 nM
Solubility (Solubility in PBS buffer): 75 µM (≈ 32.4 µg/mL)
Structure (SMILES): c1ccc2[nH]c(CNc3nc(N4CCNCC4)nc4c3ncn4-c3ccsc3)nc2c1 [SR-1292]

IC50 (CK1δ [5]): 199 nM
Structure (SMILES): CC1CN(c2nc(NCc3nc4ccccc4[nH]3)c3ncn(-c4ccsc4)c3n2)CCN1 (stereo not drawn) [SR-2915]

IC50 (CK1δ [4]; [11]): 21 nM
Structure (SMILES): O=[N+]([O-])c1ccc2[nH]c(CNc3nc(N4CCOCC4)nc4c3ncn4-c3ccsc3)nc2c1 [SR-1278]

IC50 (CK1δ [4]; [11]): 16 nM
Structure (SMILES): CS(=O)(=O)c1cccc2[nH]c(CNc3nc(N4CCOCC4)nc4c3ncn4-c3ccsc3)nc12 [SR-2805]

Structure (SMILES): NC1CCN(c2nc(NCc3nc4cc(Cl)ccc4[nH]3)c3ncn(-c4ccsc4)c3n2)CC1 [SR-2875]
IC50 (CK1δ [5]): 119 nM

IC50 (CK1δ [4]; [11]): 19 nM
Structure (SMILES): O=[N+]([O-])c1cccc2[nH]c(CNc3nc(N4CCOCC4)nc4c3ncn4-c3ccoc3)nc12 [SR-2007]

IC50 (CK1δ [4]; [11]): 128 nM
Structure (SMILES): FC(F)(F)c1cccc2[nH]c(CNc3nc(N4CCOCC4)nc4c3ncn4-c3ccsc3)nc12 [SR-1272]

EC50 [1, 10]: 111 nM
Solubility [6]: 28 µM (≈ 12.1 µg/mL)
Microsome stability T1/2 (human) ([7]; human liver microsomes, first value of h/r/m): 11 min
AUC (Mouse PK studies): 1.75 µM·h
Cl (Mouse PK studies): 2.2 mL/min/kg
Cmax (Mouse PK studies): 3.2 µM
T1/2 (Mouse PK studies): 43.8 min
Inhibition of 1A2 (cytochrome P450 1A2): e 86% Inhibition of 1A2 at 10 μM.
Microsome stability T1/2 (mouse) ([8]; mouse liver microsomes, third value of h/r/m): 1 min
IC50 (CK1ε; read-out: CK1ε Inh IC50, data obtained by Reaction Biology Corporation): 540 nM
IC50 (CK1δ [4]; [11]): 160 nM
Microsome stability T1/2 (rat) ([9]; rat liver microsomes, second value of h/r/m): 6 min
Structure (SMILES): c1ccc2[nH]c(CNc3nc(N4CCOCC4)nc4c3ncn4-c3ccsc3)nc2c1 [SR-653234]

half-life ([7]; human, liver microsomes): 54 min
half-life ([8]; mouse, liver microsomes): 21 min
half-life ([9]; rat, liver microsomes): 21 min
Structure (SMILES): CCN(CC)CCNC(=O)c1c(C)[nH]c(/C=C2\C(=O)Nc3ccc(F)cc32)c1C [Sunitinib, sunitinib, reference compound]

EC50 ([1]; Homo sapiens, A-375, read-out: MTT assay A375 EC50): 1570 nM
Activity against CK1ε (CK1ε): inactive
Activity against CK1δ (CK1δ [4]): inactive
Structure (SMILES): CC(C)(C)c1cc(NC(=O)Nc2ccc(-c3cn4c(n3)sc3cc(OCCN5CCOCC5)ccc34)cc2)no1 [AC220, reference compound]

IC50 (CK1δ [4]; [11]): 57 nM
Structure (SMILES): c1ccc2[nH]c(CNc3nc(N4CCOCC4)nc4c3ncn4C3CCCC3)nc2c1 [SR-2149]

IC50 (CK1δ [4]; [11]): 105 nM
Structure (SMILES): Clc1ccc2[nH]c(CNc3nc(N4CCOCC4)nc4c3ncn4-c3ccsc3)nc2c1 [SR-1274]

IC50 (CK1δ [4]; [11]): 23 nM
Structure (SMILES): Clc1ccc2[nH]c(CNc3nc(N4CCOCC4)nc4c3ncn4-c3ccoc3)nc2c1 [SR-2850]
